# Test results as given in patent US20020018997A1, “Biomolecular toxicity assay” (priority 2000, published 2002).
# Tests used:
# [1] = system: Sub-mitochondrial Particle (SMP); details: cited from earlier work
# actin-cofilin complex = assay: Native PAGE gel analysis of actin-cofilin complex; assay type: binding; details: for Effective (E50) concentration, disappearance of the actin-cofilin band: native PAGE gels, 25 μM actin-cofilin complex, metal mass without counter ions
# Procedure: Four heavy metal ions (Cd, Cu, Hg and Zn) were examined over the concentration range 1-1000 μg L^−1.
# Combinations of actin, cofilin and DNaseI were mixed at equimolar concentrations (˜20-25 μm) in a Eppendorf tube and incubated for 15 min at 22° C. Actin, cofilin, DNaseI and their complexes were then separated on a 10% w/v native gel. […] Instead, the rate of migration is determined by the ratio of charge to volume. Actin (MT 43 kDa) has a net negative charge.
# Fish = details: at 96 hr; cited from earlier work
# [2] = system: Photobacterium phosphoreum; details: cited from earlier work
# Beef Heart Mitochondria = details: cited from earlier work
# DNA/EtBr complex = assay: DNA/EtBr fluorescence emission in solution; assay type: binding; details: 5 μg/ml DNA, 2 μg/ml EtBr
# Procedure: The fluorescence emission of DNA-dye ligands such as ethidium bromide (EtBr) are examined spectroscopically in solution.
# Changes in fluorescence intensity were noticeable at 2 μM.
smiles,measurement,setting,value
[Cd+2] [Cd^2+],"Effective (E50) concentration, SMP",[1],520 µg/L
same,"Effective (E50) concentration, disappearance of the actin-cofilin band",actin-cofilin complex,800 to 1200 µg/L
same,"Effective (E50) concentration, Fish",Fish,630 µg/L
same,Microtox mean lethal concentration,[2],41400 µg/L
same,"Effective (E50) concentration, BHM",Beef Heart Mitochondria,158 µg/L
[Cu+2] [Cu^2+],"Effective (E50) concentration, SMP",[1],300 µg/L
same,"Effective (E50) concentration, disappearance of the actin-cofilin band",actin-cofilin complex,400 to 600 µg/L
same,Concentration at which the actin-cofilin complex is first noticeably affected,actin-cofilin complex; native gel,approximately 200 μg L^−1
same,"Effective (E50) concentration, Fish",Fish,530 µg/L
same,Microtox mean lethal concentration,[2],9300 µg/L
same,"Effective (E50) concentration, BHM",Beef Heart Mitochondria,93 µg/L
[Cl][Hg][Cl] [HgCl2],Concentration at which changes in fluorescence intensity were noticeable,DNA/EtBr complex,2 µM
same,Concentration range of concentration-dependent quenching of fluorescent signal,DNA/EtBr complex; excitation 520 nm,1 to 100 µM
"[Cl-].[Cl-].[Zn+2] [Zn^2+, ZnCl2]","Effective (E50) concentration, SMP",[1],1700 µg/L
same,Density of the actin-cofilin complex,actin-cofilin complex; 250-2500 μg L^−1,decreased the density of the actin-cofilin complex
same,"Effective (E50) concentration, disappearance of the actin-cofilin band",actin-cofilin complex,900 to 1000 µg/L
same,"Effective (E50) concentration, Fish",Fish,2990 µg/L
same,Microtox mean lethal concentration,[2],33000 µg/L
same,"Effective (E50) concentration, BHM",Beef Heart Mitochondria,80 µg/L
